Measured values published in US20260108548A1, “COMPOSITION OF PAEONIFLORIN AND ISOLIQUIRITIGENIN AND USE THEREOF” (HENAN UNIVERSITY OF CHINESE MEDICINE, priority 2023, published 2026).

What was measured:
Assay type in all cases: in vivo, SD rats
[1] = tested on: rat pulmonary fibrosis model; assay: Lung function (FinePointe PFT) in bleomycin pulmonary fibrosis rats, Example 1
Protocol: (§1) A rat pulmonary fibrosis model was prepared using a one-time intratracheal instillation of bleomycin. After the rat was anesthetized by intraperitoneal injection of 10% chloral hydrate (3.0 ml/kg), it was tilted back and fixed on a rat board and irradiated with light source on the throat, and the glottis was seen to open and close in an orderly manner with breathing when the tongue was gently lifted to open the mouth. The indwelling needle was gently pushed into the trachea as the glottis opened and closed, the needle core was pulled out, and whether tracheal intubation was successful was verified by swing of a cotton thread. Bleomycin was injected into the trachea at a dose of 5 mg/kg, and 0.5 ml of air was further injected to ensure the depth of the drug. The rat was held upright and rocked from side to side to ensure even distribution of the drug in the lung. The anesthetized rat was placed on an electric blanket to maintain body temperature. After waking up, it is placed into a corresponding cage. The rats were fed normally until the 28th day, drinking pure water and eating sterile feed freely every day.
(§2) The modeling day was set as day 0.
(§3) Before collecting the sample, the rat was anesthetized and submitted to a tracheotomy, and the tracheal tube was inserted into the rat's trachea and fixed. The FinePointe™ series PFT measurement system was used to detect the rat's forced vital capacity (FVC), forced expiratory volume in 0.3 s (FEV 0.3), vital capacity (VC), and dynamic lung compliance (Cydn).

[2] = tested on: rat pulmonary fibrosis model; assay: Lung tissue pathology, H&E and Masson staining, Szapiel scoring, Example 1; details: for Alveolitis (score): H&E staining; for Alveolitis (score) / Pulmonary fibrosis (score): score 0-3, doses per Table 4, 14 days, X ± SE, N = 6; for Pulmonary fibrosis (score): Masson staining
Protocol: as §1, §2
The left lung was fixed with 10% formaldehyde for 72 hours, embedded in paraffin, sectioned at 4 μm for HE and Masson staining.
Pathological scoring of alveolitis and pulmonary fibrosis was performed according to the Szapiel method, the degree of alveolitis was determined by HE staining, and the degree of pulmonary fibrosis was determined by Masson staining.
The pathological changes in lung tissue were observed using an optical microscope. 6 sections were selected from each group and 6 fields were selected from each section.

CoL I = CoL I expression in lung tissue by immunohistochemistry, Example 1; details: for COL I (IOD): lung tissue IHC, doses per Table 4, 14 days, X ± SE, N = 6; for expression of CoL I protein, compared with the model group: P<0.01, P<0.05
Protocol: as §1, §2
(§4) The detection was performed by Immunohistochemistry.
(§5) The lung tissue was sliced into 4 μm sections and baked at 60° C. for 3 hours. The paraffin sections were dewaxed in xylene, dehydrated in gradient alcohols, and washed in distilled water for 2 minutes in order. The washed sections were then boiled in 0.01 M citrate buffer in a microwave oven for antigen retrieval. A 3% […] was added dropwise to the sections to block endogenous peroxidase. After the sections were blocked with a 5% BSA blocking solution and incubated at 37° C. for 30 minutes, the primary antibody was added dropwise thereto (the dilution ratio was 1:500 for CoL I, and 1:2000 for α-SMA), and the sections were incubated overnight in a humid box at 4° C. HRP-labeled goat anti-rabbit secondary antibody was added dropwise, and the sections were incubated at 37° C. for 20 minutes; and then SABC was added dropwise and the sections were incubated at 37° C. for 30 minutes. Thereafter, a freshly prepared DAB chromogenic solution was added dropwise, and the sections were observed under a microscope, and the color development was stopped once brownish yellow appeared. The sections were counterstained with hematoxylin for 30 seconds, differentiated with a 1% hydrochloric acid in alcohol for 3 seconds; and dehydrated in gradient alcohols in sequence. The sections were dried in a fume hood, sealed with neutral gum, and dried in the air. Images were collected with Olympus-DP70 microscope (Image-Pro Plus 6.0, IPP 6.0), 6 fields were randomly selected for each section, and the image integrated optical density (IOD) was calculated.

α-SMA = α-SMA expression in lung tissue by immunohistochemistry, Example 1; details: for α-SMA (IOD): lung tissue IHC, doses per Table 4, 14 days, X ± SE, N = 6; for expression of α-SMA protein, compared with the model group: P<0.05
Protocol: as §1, §2, §4, §5

[3] = tested on: rat pulmonary fibrosis model; assay: R value comprehensive evaluation of 8 indicators, Example 1; details: for Total efficacy related indicator R value: 8 indicators, R=1 best effect, R=2 no corrective effect, X ± SE, N = 8
Protocol: The data were standardized and the Rcomprehensive value data set was established (Rcomprehensive=R−(−2)). […] When Rcomprehensive<1, it means that the comprehensive corrective degree of the drug on such indicators exceeds the normal value.
A total of 8 indicators, i.e., lung function (FVC, FEV0.3, IC, Cydn), lung tissue pathology (H&E staining, Masson staining), and collagen deposition (CoL I, α-SMA) were calculated using the R value comprehensive evaluation method.

[4] = tested on: rat pulmonary fibrosis model; assay: Lung function in bleomycin pulmonary fibrosis rats, Example 2; details: for Cydn / FEV0.3 / FVC: isoliquiritigenin, paeoniflorin, combination each 0.55 mg/kg/d intragastric, day 29-42, X ± SE, N = 10
Protocol: In order to evaluate the difference in the efficacy of isoliquiritigenin and paeoniflorin alone and in combination, a study was conducted by splitting the Formula 8 into isoliquiritigenin, paeoniflorin and combination thereof, each adopting the dose of 0.55 mg/kg/d.
The experimental materials and research methods were the same as those in Example 1.
A total of 72 rats were randomly divided into blank group, model group, isoliquiritigenin group, paeoniflorin group, combination group, and pirfenidone group, 6 groups in total, 12 rats in each group, and 6 female/group, 6 male/group. The modeling day was set as day 0. From the 29th day, the blank group (normal rats without modeling) and the model group were administered intragastrically with physiological saline (2 ml/rat), the isoliquiritigenin group was administered with isoliquiritigenin (0.55 mg/kg/d), the paeoniflorin group was administered with paeoniflorin (0.55 mg/kg/d), and the combination group was administered with isoliquiritigenin+paeoniflorin (0.55 mg/kg/d), once daily, for 14 days, and the samples were collected at the end of the 42nd day.
as §3, with “rats were” for “rat was”

[5] = tested on: rat pulmonary fibrosis model; assay: Lung tissue pathology, H&E and Masson staining, Szapiel scoring, Example 2; details: for Alveolitis (score): H&E staining; for Alveolitis (score) / Pulmonary fibrosis (score): each 0.55 mg/kg/d, 14 days, X ± SE, N = 6; for Pulmonary fibrosis (score): Masson staining
Protocol: The experimental materials and research methods were the same as those in Example 1. […] The modeling day was set as day 0. […] The left lung was fixed with 10% formaldehyde for 72 hours, embedded in paraffin, sectioned at 4 μm for HE and Masson staining. Pathological scoring of alveolitis and pulmonary fibrosis was performed according to the Szapiel method, the degree of alveolitis was determined by HE staining, and the degree of pulmonary fibrosis was determined by Masson staining. The pathological changes in the lung tissue were observed using an optical microscope. 6 sections were selected from each group and 6 fields were selected from each section.

[6] = tested on: rat pulmonary fibrosis model; assay: Lung function in bleomycin pulmonary fibrosis rats, Example 2; details: for IC: isoliquiritigenin, paeoniflorin, combination each 0.55 mg/kg/d intragastric, day 29-42, X ± SE, N = 10
[7] = bleomycin 5 mg/kg intratracheal, intragastric once daily day 29-42, doses per Table 4, X ± SE, N = 10

Compound	Cydn [1, 7] [mL/s]	FEV0.3 [1, 7]	Alveolitis (score) [2] [score]	Pulmonary fibrosis (score) [2] [score]	alveolitis scores, compared with the model group ([2]; P<0.01, P<0.05)	COL I (IOD) (CoL I)	α-SMA (IOD) (α-SMA)	Total efficacy related indicator R value [3]	expression of CoL I protein, compared with the model group (CoL I)	FEV0.3, compared with the model group ([4]; P<0.01, P<0.05)	Cydn [4] [mL/s]	FEV0.3 [4] [mL/s]	FVC [4] [mL/s]	Alveolitis (score) [5] [score]	Pulmonary fibrosis (score) [5] [score]	pulmonary fibrosis score, compared with the model group ([5]; P<0.01, P<0.05)	IC [6] [mL/s]	expression of α-SMA protein, compared with the model group (α-SMA)	IC, compared with the model group ([1]; P<0.01, P<0.05)	also measured
COc1ccc(-c2oc3c(CC=C(C)C)c(O[C@@H]4O[C@H](CO)[C@@H](O)[C@H](O)[C@H]4O)cc(O)c3c(=O)c2O[C@@H]2O[C@@H](C)[C@H](O)[C@@H](O)[C@H]2O)cc1 [Formula 3, icariin]	0.34 ± 0.05	10.46 ± 1.58 mL/s	0.94 ± 0.39	1.33 ± 0.31	significantly reduced	17.80 ± 1.44	12.03 ± 1.87	1.76 ± 0.16^∘^	–	–	–	–	–	–	–	–	–	–	–	–
O=C(/C=C/c1ccc(O)cc1)c1ccc(O)cc1O [Formula 4, isoliquiritigenin]	0.30 ± 0.03	10.42 ± 1.43 mL/s	1.72 ± 0.25	1.78 ± 0.33	–	15.54 ± 2.59	12.20 ± 0.89	1.82 ± 0.11^∘∘	significantly reduced	increased	0.32 ± 0.04	11.09 ± 1.01	11.34 ± 0.78	1.68 ± 0.30	1.74 ± 0.31	could reduce	9.03 ± 0.88	–	–	–
COc1ccc(-c2cc(=O)c3c(OC)c(OC)c(OC)c(OC)c3o2)cc1OC [Formula 5, nobiletin]	0.35 ± 0.02	11.44 ± 1.41 mL/s	1.39 ± 0.54	1.56 ± 0.49	–	18.40 ± 0.89	9.030 ± 0.8	1.48 ± 0.46	–	–	–	–	–	–	–	–	–	significantly reduced	–	Cydn, compared with the model group ([1]; P<0.05): increased
C[C@H]1CC[C@@H]2N(C1)C[C@H]1[C@@H]3C[C@H]4[C@@H](C[C@H](O)[C@H]5C[C@@H](O)CC[C@@]54C)[C@@H]3CC[C@@H]1[C@]2(C)O [Formula 6, peimine]	0.30 ± 0.03	12.04 ± 1.36 mL/s	1.17 ± 0.19	1.39 ± 0.23	significantly reduced	17.37 ± 0.89	9.647 ± 0.8	1.57 ± 0.29	–	–	–	–	–	–	–	–	–	significantly reduced	–	–
Cc1ccc(=O)n(-c2ccccc2)c1 [Pirfenidone]	0.33 ± 0.03	10.68 ± 0.97 mL/s	1.33 ± 0.24	1.33 ± 0.37	–	10.41 ± 0.63	12.57 ± 1.17	1.61 ± 0.32^#^	significantly reduced	increased	0.33 ± 0.03	13.46 ± 1.04	12.34 ± 1.11	1.43 ± 0.28	1.46 ± 0.39	significantly reduced	10.77 ± 0.83	–	significantly increased	alveolitis score, compared with the model group ([5]; P<0.01, P<0.05): significantly reduced; IC, compared with the model group ([6]; P<0.01, P<0.05): increased
paeoniflorin [Formula 7]	0.31 ± 0.03	14.70 ± 1.25^##Δ ml/s	1.44 ± 0.27	0.94 ± 0.16	–	13.61 ± 1.90	10.57 ± 0.36	1.41 ± 0.27^##□▪	significantly reduced	increased	0.31 ± 0.54	12.88 ± 0.98	13.49 ± 1.17	1.52 ± 0.29	1.65 ± 0.19	could reduce	9.62 ± 0.54	significantly reduced	significantly increased	FEV0.3, compared with the model group ([1]; P<0.01, P<0.05): significantly increased; FVC, compared with the model group ([1]; P<0.01, P<0.05): significantly increased; FEV0.3, compared with the pirfenidone group ([1]; P<0.05): increased; FVC, compared with the pirfenidone group ([1]; P<0.05): increased; FVC [1, 7]: 15.95 ± 1.36^##Δ ml/s; IC [1, 7]: 9.84 ± 0.75 mL/s; pulmonary fibrosis scores, compared with the model group ([2]; P<0.01, P<0.05): significantly reduced; R value comprehensive evaluation, comparison between treatment groups [3]: better than the Formula 3 (icariin), the Formula 4 (isoliquiritigenin), and the Formula 5 (nobiletin); FVC, compared with the model group ([4]; P<0.01, P<0.05): increased
